These results are taken from article PMC5607274, “An iterative compound screening contest method for identifying target protein inhibitors using the tyrosine-protein kinase Yes” (Scientific Reports, 2017).

T1 sequence (P07947 2-543): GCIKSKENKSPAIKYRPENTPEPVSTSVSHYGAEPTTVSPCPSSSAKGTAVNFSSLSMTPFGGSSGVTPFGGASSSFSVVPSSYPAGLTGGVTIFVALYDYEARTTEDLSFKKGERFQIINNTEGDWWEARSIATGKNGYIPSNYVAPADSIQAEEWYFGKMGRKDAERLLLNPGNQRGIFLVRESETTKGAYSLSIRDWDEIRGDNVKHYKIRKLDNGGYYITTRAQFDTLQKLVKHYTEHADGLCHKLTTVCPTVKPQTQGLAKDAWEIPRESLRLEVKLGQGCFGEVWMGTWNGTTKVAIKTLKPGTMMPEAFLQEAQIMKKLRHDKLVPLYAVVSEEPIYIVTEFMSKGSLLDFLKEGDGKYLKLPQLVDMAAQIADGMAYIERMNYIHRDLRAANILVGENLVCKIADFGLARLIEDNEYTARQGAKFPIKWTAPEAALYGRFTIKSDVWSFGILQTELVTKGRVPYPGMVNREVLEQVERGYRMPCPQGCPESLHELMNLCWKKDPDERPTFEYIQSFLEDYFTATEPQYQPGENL

One test concerns the target T1, human recombinant Yes [a.a. 2–543 (end)] (Homo sapiens, UniProt P07947).
T1 construct: human recombinant Yes [a.a; 2–543 (end)]; purchased BPS Bioscience 40488
The test is described as follows: ADP-Glo kinase assay, inhibition rates of Yes phosphorylation activity (first and second screening). The test is classed as biochemical. The settings on record: first screening; mean of n = 4 wells; 10 μmol L−1 compound. The method, boiled down:
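Hits from a first pass were rescreened after re-dissolution from fresh powder. The first pass reported the mean inhibition rate of quadruplicate wells per compound. Activity was that of recombinant human Yes [a.a. 2–543] kinase, read out with the ADP-Glo ADP-detection method.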
(In general: ADP-Glo first removes unused ATP, then detects ADP through luciferase.)
As to `CC(c1ccc(S(N)(=O)=O)cc1)N(C)S(=O)(=O)c1cc(Cl)cc(Cl)c1` (stereo not drawn) [Compound Z65599853], the “First screening IR (inhibition rate)” value was found to be 0%.

Regarding `CNC(=O)NC(=O)COC(=O)c1cc(-c2ccccc2)nc2c1cnn2Cc1ccccc1` [Compound Z228518838], the “First screening IR (inhibition rate)” value is given as -8%. Consider `O=C(O)c1cnc(/C=C/c2cccnc2)s1` [Compound Z1021595256], for which the “First screening IR (inhibition rate)” value is listed as 0%.

Regarding `Cc1ccccc1C1CCCN1c1ncnc2nc[nH]c12` (stereo not drawn) [Compound Z1343261311], the “First screening IR (inhibition rate)” value is listed as 42%. With `COc1ccc(/C=C2/CCCc3c2nc2ccccc2c3C(=O)O)cc1` [Compound Z46035754], the “First screening IR (inhibition rate)” value was 9%. Consider `CC1CCCC(NC(=S)Nc2cccc(S(=O)(=O)N(C)C)c2)C1C` (stereo not drawn) [Compound Z45768220], for which the “First screening IR (inhibition rate)” value is on record as 27%. On to `CC(Sc1n[nH]c(/C=C/c2ccccc2)n1)c1nc(C(C)(C)C)no1` (stereo not drawn) [Compound Z298272042], for which the “First screening IR (inhibition rate)” value is 12%. For the compound `Cc1c(-c2ccccc2)nc2ccc(Cl)cc2c1-c1ccccc1.Cl` [Compound Z48950813], the “First screening IR (inhibition rate)” value is on record as 20%. For the compound `O=C(Nc1cc(-c2cccc(F)c2F)[nH]n1)c1ccc2nncn2c1` [Compound Z1423687928], the “First screening IR (inhibition rate)” value is reported as 11%. On the same count and under the same terms, the same measure for `Cc1c(C#N)c(NC(=O)CN2CCC(n3c(=O)[nH]c4ccccc43)CC2)n(Cc2ccco2)c1C` [Compound Z126941634]: 9%; for `CC1(C(=O)N2CCCc3cc(S(=O)(=O)N4CCCC4)ccc32)Cc2ccccc2C(=O)O1` (stereo not drawn) [Compound Z131206652]: -1%; for `CN1CCN(S(=O)(=O)CCS(C)(=O)=O)CC1` [Compound Z1238645651]: -2%. For the compound `COc1ccc2c(c1)c(CC(=O)OCc1ncc(Cl)n1C)c(C)n2C(=O)c1ccc(Cl)cc1` [Compound Z148531038], the “First screening IR (inhibition rate)” value came out at 0%.

Regarding `CCOc1ccc(-c2nc3ccccc3c(-c3ccccc3)c2Cl)cc1.Cl` [Compound Z57038735], the “First screening IR (inhibition rate)” value was 51%. Same read-out and setting: the same measure for `Cc1cccc(C)c1OCc1nc2c3c(-c4ccccc4)c(-c4ccccc4)oc3ncn2n1` [Compound Z56793398]: 20%; for `Cc1c(-c2ccc(O)cc2)nc2ccc(Cl)cc2c1-c1ccccc1F.Cl` [Compound Z48955845]: 3%. In the case of `COc1cccc(-c2cc(-c3ccc(C)cc3)c3ccccc3n2)c1` [Compound Z1664164245], the “First screening IR (inhibition rate)” value is on record as -18%. The same measure, in the same setting: with `O=C(Nc1nc2c(s1)CN(Cc1ccccc1)CC2)c1cc2c(nc3sccn32)s1` [Compound Z68435865] the figure was -4%. On the same count and under the same terms, with `Cn1ncc2c(N(Cc3ccccc3F)C3CC3)ncnc21` [Compound Z328694806] the figure was -21%; with `CCN(Cc1ccc(Cl)s1)C(=O)NCc1ccnc(N2CCN(C)CC2)c1` [Compound Z508129336], 9%. With `Cc1cc(C(=O)CSCc2nc(N)nc(N(C)C)n2)c(C)n1C1CC1` [Compound Z197454120], the “First screening IR (inhibition rate)” value is 4%. `CON(C)C(=O)c1cc(-c2ccccc2)nc2c1cnn2Cc1ccncc1` [Compound Z109300154]: the “First screening IR (inhibition rate)” value was -8%. For the compound `Cn1nccc1/C=C1\C(=O)Nc2ccccc21` [Compound Z336032014], the “First screening IR (inhibition rate)” value is listed as 2%. As to `CCOc1cc(/C=N/Nc2ccnc3cc(Cl)ccc23)ccc1O` [Compound Z49625899], the “First screening IR (inhibition rate)” value is 9%. With `O=C(c1cn(Cc2ccccc2)nc1-c1cccnc1)N1CCN(c2ccccn2)CC1` [Compound Z26735071], the “First screening IR (inhibition rate)” value was 21%. `c1ccc(-c2cn3nc(NCCCN4CCOCC4)sc3n2)cc1` [Compound Z300797868]: the “First screening IR (inhibition rate)” value is on record as 11%.

Staying with this test, now noted: second screening, dissolved from fresh powder; n = 4; 10 μmol L−1 compound.
As for `CCOc1ccc(-c2nc3ccccc3c(-c3ccccc3)c2Cl)cc1.Cl` [Compound Z57038735], the “Second screening IR (inhibition rate)” value was 2%.
